Measured values reported in the CheMixHub ionic liquid set.

Assay: xn = mol fraction of the nth substance listed

C[N+](C)(C)CCC[N+]1(C)CCCCC1.N#C[N-]C#N.N#C[N-]C#N + CC#N
100 kPa
Conditions | viscosity [mPa·s]
288.15 K, x1 = 0.7996 | 2305
293.15 K, x1 = 0.0999 | 3.69
293.15 K, x1 = 1 | 4503
298.15 K, x1 = 0.3001 | 37.7
298.15 K, x1 = 0.5002 | 181
298.15 K, x1 = 1 | 2819
303.15 K, x1 = 0.3998 | 69.5
308.15 K, x1 = 0.0999 | 2.98
308.15 K, x1 = 0.3001 | 26.5
308.15 K, x1 = 0.3998 | 56.5
308.15 K, x1 = 0.5002 | 109
313.15 K, x1 = 0.2001 | 9.24
313.15 K, x1 = 0.8998 | 545
318.15 K, x1 = 0.0999 | 2.68
318.15 K, x1 = 0.2001 | 8.26
318.15 K, x1 = 0.5002 | 70.4
318.15 K, x1 = 0.7001 | 163
318.15 K, x1 = 1 | 618
323.15 K, x1 = 0.3001 | 17.3
323.15 K, x1 = 0.6 | 91.8
323.15 K, x1 = 0.7001 | 130
328.15 K, x1 = 0.2001 | 6.82
328.15 K, x1 = 0.5002 | 48.7
328.15 K, x1 = 0.6 | 74.3
333.15 K, x1 = 0.5002 | 41.6
333.15 K, x1 = 0.8998 | 183

CCCCCCCCn1cc[n+](C)c1.N#C[S-] + [Cl-].[Li+] + CN1CCCC1=O
298.15 K, 101 kPa
Conditions | viscosity [mPa·s]
x1 = 0.001139, x2 = 0.07166 | 3.748
x1 = 0.001259, x2 = 0.03751 | 2.694
x1 = 0.001303, x2 = 0.1042 | 5.098
x1 = 0.002343, x2 = 0.1041 | 5.122
x1 = 0.002465, x2 = 0.07157 | 3.763
x1 = 0.002516, x2 = 0.03747 | 2.708
x1 = 0.00365, x2 = 0.104 | 5.151
x1 = 0.003672, x2 = 0.03742 | 2.735
x1 = 0.003977, x2 = 0.07146 | 3.796
x1 = 0.004888, x2 = 0.1039 | 5.175
x1 = 0.005019, x2 = 0.03737 | 2.761
x1 = 0.005107, x2 = 0.07138 | 3.83
x1 = 0.00605, x2 = 0.1038 | 5.201
x1 = 0.006235, x2 = 0.0713 | 3.857
x1 = 0.006361, x2 = 0.03732 | 2.789
x1 = 0.007163, x2 = 0.1036 | 5.219
x1 = 0.00736, x2 = 0.07122 | 3.892
x1 = 0.007605, x2 = 0.03728 | 2.811
x1 = 0.00842, x2 = 0.1035 | 5.236
x1 = 0.00867, x2 = 0.07112 | 3.932
x1 = 0.008845, x2 = 0.03723 | 2.84
x1 = 0.009774, x2 = 0.1034 | 5.256
x1 = 0.009789, x2 = 0.07104 | 3.97
x1 = 0.01008, x2 = 0.03718 | 2.854
